Values of other authors, collected in patent publication US11717549B2, “Steviol glycoside solubility enhancers” (CARGILL, INCORPORATED, priority 2017, dated 2023).
Where two headings read alike, the source gives them in different places.

Details: cited from earlier work

1,5-anthraquinone disulfonic acid anilide
solubility (ppm) (temperature 18 ° C.): 3.97E+03 ppm

1,7-chloroanthraquinone sulfonic acid
solubility (ppm) (temperature 18 ° C.): 1.67E+05 ppm

CCCCC(C)C(=O)O (racemic) [2-methylhexanoic acid]
solubility (ppm) (temperature 25 ° C.): 6.07E+03 ppm

CCC(C)CCC(=O)O (racemic) [4-methylhexanoic acid]
solubility (ppm) (temperature 25 ° C.): 3.56E+03 ppm

O=C(O)C(O)c1ccccc1 (racemic) [alpha-hydroxybenzeneacetic acid, (±)]
solubility (ppm) (temperature 20 ° C.): 1.21E+05 ppm

CC1(C)[C@@H](C(=O)O)CC[C@@]1(C)C(=O)O (relative stereo) [cis-1,2,2-trimethyl-1,3-cyclopentanedicarboxylic acid, (1R)]
solubility (ppm) (temperature 25 ° C.): 7.54E+03 ppm

O=C(O)c1cccc(C(=O)O)c1C(=O)O [1,2,3-benzenetricarboxylic acid]
solubility (ppm) (temperature 19 ° C.): 2.97E+04 ppm

O=C(O)c1cc(C(=O)O)cc(C(=O)O)c1 [1,3,5-benzenetricarboxylic acid]
solubility (ppm) (temperature 16 ° C.): 3.79E+03 ppm

O=C1c2cccc(S(=O)(=O)O)c2C(=O)c2cccc(S(=O)(=O)O)c21 [1,5-anthraquinone disulfonic acid]
solubility (ppm) (temperature 18 ° C.): 2.86E+05 ppm

O=C1c2cccc(S(=O)(=O)O)c2C(=O)c2cccc(Cl)c21 [1,5-chloroanthraquinone sulfonic acid]
solubility (ppm) (temperature 18 ° C.): 2.50E+05 ppm

O=C1c2cc(S(=O)(=O)O)ccc2C(=O)c2c1cccc2S(=O)(=O)O [1,6-anthraquinone disulfonic acid]
solubility (ppm) (temperature 18 ° C.): 3.33E+05 ppm

O=C1c2cc(S(=O)(=O)O)ccc2C(=O)c2c(Cl)cccc21 [1,6-chloroanthraquinone sulfonic acid]
solubility (ppm) (temperature 18 ° C.): 1.67E+05 ppm

O=C1c2cccc(S(=O)(=O)Nc3ccccc3)c2C(=O)c2c1cccc2S(=O)(=O)Nc1ccccc1 [1,8-anthraquinone disulfonic acid anilide]
solubility (ppm) (temperature 18 ° C.): 2.27E+04 ppm

O=C1c2cccc(S(=O)O)c2C(=O)c2c1cccc2S(=O)O [1,8-anthraquinonedisulfinic acid]
solubility (ppm) (temperature 18 ° C.): 2.86E+05 ppm

CCCCC(C)(C)C(=O)O [2,2-dimethylhexanoic acid]
solubility (ppm) (temperature 25 ° C.): 3.44E+03 ppm

O=C(O)c1ccnc(C(=O)O)c1C(=O)O [2,3,4-pyridinetricarboxylic acid]
solubility (ppm) (temperature 15 ° C.): 1.19E+04 ppm

O=C(O)c1cccnc1C(=O)O [2,3-pyridinedicarboxylic acid]
solubility (ppm) (temperature 25 ° C.): 1.09E+04 ppm

O=C(O)c1c(Br)cc(Br)cc1Br [2,4,6-tribromobenzoic acid]
solubility (ppm) (temperature 15 ° C.): 3.49E+03 ppm

O=C(O)c1ccc(O)cc1O [2,4-dihydroxybenzoic acid]
solubility (ppm) (temperature 25 ° C.): 5.96E+03 ppm

O=C(O)c1ccc([N+](=O)[O-])cc1[N+](=O)[O-] [2,4-dinitrobenzoic acid]
solubility (ppm) (temperature 25 ° C.): 1.79E+04 ppm

O=C(O)c1c(Cl)cccc1Cl [2,6-dichlorobenzoic acid]
solubility (ppm) (temperature not given): 1.39E+04 ppm

O=C(O)c1c(O)cccc1O [2,6-dihydroxybenzoic acid]
solubility (ppm) (temperature not given): 9.47E+03 ppm

CC(=O)Oc1ccccc1C(=O)OC[S+](C)[O-] (stereo not shown) [2-(acetoxy)-benzoic acid, (methylsulfinyl)methyl ester]
solubility (ppm) (temperature 21 ° C.): 4.21E+03 ppm

CC(=O)Oc1ccccc1C(=O)O [2-(acetyloxy)benzoic acid]
solubility (ppm) (temperature 25 ° C.): 4.58E+03 ppm

O=C(O)c1ccccc1C(F)(F)F [2-(trifluoromethyl)benzoic acid]
solubility (ppm) (temperature 25 ° C.): 4.78E+03 ppm

CCCC=C(CC)C(=O)O [2-ethyl-2-hexenoic acid]
solubility (ppm) (temperature 25 ° C.): 6.06E+03 ppm

CCC(C)(CC)C(=O)O [2-ethyl-2-methylbutanoic acid]
solubility (ppm) (temperature 25 ° C.): 9.69E+03 ppm

O=C(O)c1ccccc1F [2-fluorobenzoic acid]
solubility (ppm) (temperature 25 ° C.): 7.15E+03 ppm

Cc1cccc(C(=O)O)c1O [2-hydroxy-3-methylbenzoic acid]
solubility (ppm) (temperature 100 ° C.): 1.15E+04 ppm

Cc1ccc(C(=O)O)c(O)c1 [2-hydroxy-4-methylbenzoic acid]
solubility (ppm) (temperature 100 ° C.): 1.00E+04 ppm

Cc1ccc(O)c(C(=O)O)c1 [2-hydroxy-5-methylbenzoic acid]
solubility (ppm) (temperature 100 ° C.): 2.14E+04 ppm

O=C(O)c1cccc(C(=O)O)c1O [2-hydroxyisophthalic acid]
solubility (ppm) (temperature 100 ° C.): 2.57E+04 ppm

COc1ccccc1C(=O)O [2-methoxybenzoic acid]
solubility (ppm) (temperature 25 ° C.): 4.18E+03 ppm

CCCCC=C(C)C(=O)O [2-methyl-2-heptenoic acid]
solubility (ppm) (temperature 25 ° C.): 4.64E+03 ppm

CCCC=CC(C)C(=O)O (stereo not shown) [2-methyl-3-heptenoic acid]
solubility (ppm) (temperature 25 ° C.): 4.64E+03 ppm

CCC=CCC(C)C(=O)O (stereo not shown) [2-methyl-4-heptenoic acid]
solubility (ppm) (temperature 25 ° C.): 4.64E+03 ppm

O=C(O)c1ccc(O)c(O)c1 [3,4-dihydroxybenzoic acid]
solubility (ppm) (temperature 14 ° C.): 1.79E+04 ppm

O=C(O)c1ccc([N+](=O)[O-])c([N+](=O)[O-])c1 [3,4-dinitrobenzoic acid]
solubility (ppm) (temperature 25 ° C.): 6.66E+03 ppm

COc1c(Cl)ccc(Cl)c1C(=O)O [3,6-dichloro-2-methoxybenzoic acid]
solubility (ppm) (temperature 25 ° C.): 4.48E+03 ppm

O=C(O)c1cccc(Br)c1[N+](=O)[O-] [3-bromo-2-nitrobenzoic acid]
solubility (ppm) (temperature 25 ° C.): 7.36E+03 ppm

O=C(O)c1cccc(Cl)c1C(=O)O [3-chlorophthalic acid]
solubility (ppm) (temperature 14 ° C.): 2.08E+04 ppm

CCCC(=CC(=O)O)CC [3-ethyl-2-hexenoic acid]
solubility (ppm) (temperature 25 ° C.): 6.06E+03 ppm

CCCC=CCC(=O)O [3-heptenoic acid]
solubility (ppm) (temperature 25 ° C.): 5.37E+03 ppm

Cc1ccc(C(=O)O)cc1O [3-hydroxy-4-methylbenzoic acid]
solubility (ppm) (temperature 100 ° C.): 4.17E+04 ppm

O=C(O)c1cc(=O)c(O)c(C(=O)O)o1 [3-hydroxy-4-oxo-4H-pyran-2,6-dicarboxylic acid]
solubility (ppm) (temperature 25 ° C.): 8.33E+03 ppm

CCCCC(C)=CC(=O)O [3-methyl-2-heptenoic acid]
solubility (ppm) (temperature 25 ° C.): 4.64E+03 ppm

CCCC=C(C)CC(=O)O [3-methyl-3-heptenoic acid]
solubility (ppm) (temperature 25 ° C.): 4.64E+03 ppm

CCC=CC(C)CC(=O)O (stereo not shown) [3-methyl-4-heptenoic acid]
solubility (ppm) (temperature 25 ° C.): 4.64E+03 ppm

CCCC(C)CC(=O)O (stereo not shown) [3-methylhexanoic acid]
solubility (ppm) (temperature 25 ° C.): 4.80E+03 ppm

CC(CCCCCC(=O)O)CC(=O)O (stereo not shown) [3-methylnonanedioic acid]
solubility (ppm) (temperature 25 ° C.): 5.53E+03 ppm

O=C(O)c1cccc([N+](=O)[O-])c1C(=O)O [3-nitrophthalic acid]
solubility (ppm) (temperature 25 ° C.): 1.97E+04 ppm

CC(C)(C)C(CCC(=O)O)CC(=O)O (stereo not shown) [3-tert-butyl adipic acid]
solubility (ppm) (temperature 25 ° C.): 6.14E+03 ppm

Cc1cc(S(=O)(=O)O)ccc1N [4-amino-3-methylbenzene sulfonic acid]
solubility (ppm) (temperature 20 ° C.): 4.98E+03 ppm

Cc1ccc(N)cc1S(=O)(=O)O [4-amino-o-toluenesulfonic acid]
solubility (ppm) (temperature 20 ° C.): 4.48E+03 ppm

CCNCCOC(=O)c1ccc(N)cc1 [4-aminobenzoic aciD-2-(ethyl-amino)ethyl ester]
solubility (ppm) (temperature not given): 5.59E+03 ppm

CCC(C=CC(=O)O)CC [4-ethyl-2-hexenoic acid]
solubility (ppm) (temperature 25 ° C.): 6.06E+03 ppm

CCC=CCCC(=O)O [4-heptenoic acid]
solubility (ppm) (temperature 25 ° C.): 5.37E+03 ppm

O=C(O)c1cc(=O)c2ccccc2[nH]1 [4-hydroxy-2-quinolinecarboxylic acid]
solubility (ppm) (temperature 100 ° C.): 8.84E+03 ppm

CCCC(C)C=CC(=O)O (stereo not shown) [4-methyl-2-heptenoic acid]
solubility (ppm) (temperature 25 ° C.): 4.64E+03 ppm

CCCC(C)=CCC(=O)O [4-methyl-3-heptenoic acid]
solubility (ppm) (temperature 25 ° C.): 4.64E+03 ppm

CCC=C(C)CCC(=O)O [4-methyl-4-heptenoic acid]
solubility (ppm) (temperature 25 ° C.): 4.64E+03 ppm

O=C(O)c1cc(=O)cc(C(=O)O)o1 [4-oxo-4H-pyran-2,6-dicarboxylic acid]
solubility (ppm) (temperature 25 ° C.): 1.41E+04 ppm

O=C1NC(=O)C2(CCC2)C(=O)N1 [5,5-trimethylenebarbituric acid]
solubility (ppm) (temperature 25 ° C.): 3.71E+03 ppm

C=CCC1(CC)C(=O)NC(=O)NC1=O [5-allyl-5-ethylbarbituric acid]
solubility (ppm) (temperature 25 ° C.): 4.75E+03 ppm

C=CCC1(CC)C(=O)NC(=O)N(CCCC)C1=O (stereo not shown) [5-allyl-5-ethylbutylbarbituric acid]
solubility (ppm) (temperature 20 ° C.): 3.99E+03 ppm

O=C(O)c1cc(Cl)ccc1[N+](=O)[O-] [5-chloro-2-nitrobenzoic acid]
solubility (ppm) (temperature 25 ° C.): 9.58E+03 ppm

CCC(C)CC=CC(=O)O (stereo not shown) [5-ethyl-2-hexenoic acid]
solubility (ppm) (temperature 25 ° C.): 6.06E+03 ppm

CCCC1(CC)C(=O)NC(=O)NC1=O [5-ethyl-5-n-propylbarbituric acid]
solubility (ppm) (temperature 25 ° C.): 5.66E+03 ppm

CC=CCCCC(=O)O [5-heptenoic acid]
solubility (ppm) (temperature 25 ° C.): 6.79E+03 ppm

CCC(C)CC=CC(=O)O (stereo not shown) [5-methyl-2-heptenoic acid]
solubility (ppm) (temperature 25 ° C.): 4.64E+03 ppm

CC(C)CC=CC(=O)O [5-methyl-2-hexenoic acid]
solubility (ppm) (temperature 25 ° C.): 5.37E+03 ppm

CCC(C)C=CCC(=O)O (stereo not shown) [5-methyl-3-heptenoic acid]
solubility (ppm) (temperature 25 ° C.): 4.64E+03 ppm

CCC(C)=CCCC(=O)O [5-methyl-4-heptenoic acid]
solubility (ppm) (temperature 25 ° C.): 4.64E+03 ppm

CC(C)CCCC(=O)O [5-methylhexanoic acid]
solubility (ppm) (temperature 25 ° C.): 3.93E+03 ppm

Nc1ccc2cc(S(=O)(=O)O)cc(O)c2c1 [6-amino-4-hydroxy-2-naphthalenesulfonic acid]
solubility (ppm) (temperature not given): 4.48E+03 ppm

C=CCCCCC(=O)O [6-heptenoic acid]
solubility (ppm) (temperature 25 ° C.): 5.55E+03 ppm

CC(C)CC=CCC(=O)O [6-methyl-3-heptenoic acid]
solubility (ppm) (temperature 25 ° C.): 4.64E+03 ppm

CC(C)C=CCCC(=O)O [6-methyl-4-heptenoic acid]
solubility (ppm) (temperature 25 ° C.): 4.64E+03 ppm

Cc1ccc([N+](=O)[O-])c(C(=O)O)c1 [6-nitro-3-methylbenzoic acid]
solubility (ppm) (temperature 20 ° C.): 4.68E+03 ppm

CCNC(=O)[C@@H](C)OC(=O)Nc1ccccc1 [D-(−)-carbanilic acid (1-ethylcarbamoyl)ethyl ester]
solubility (ppm) (temperature 20 ° C.): 3.49E+03 ppm

CC(C)(C(=O)O)C(C)(CC(=O)O)C(=O)O [L-camphoronic acid]
solubility (ppm) (temperature 16 ° C.): 9.99E+04 ppm

CC(C)(CCCC(C)(C)C(=O)O)C(=O)O [a,a,a′,a′-tetramethylheptanedioic acid]
solubility (ppm) (temperature 25 ° C.): 7.55E+03 ppm
